Assays:
human CK1 delta = molecular target: T1, human CK1 delta (Homo sapiens, UniProt P48730); assay: FRET fluorescence test (Z'Lyte kinase assay Kit), peptide substrate SER/THR 11; assay type: biochemical; conditions: peptide substrate 2 μM, ATP at 4 times the KM
T1 construct: purchased Invitrogen Corporation PV3665
Text: The capacity of the compounds of the invention to inhibit the phosphorylation of casein by casein kinase 1 epsilon and delta may be evaluated using a FRET (“Fluorescence Resonance Energy Transfer) fluorescence test with the aid of the “Z'Lyte™ kinase assay Kit” (reference PV3670; Invitrogen Corporation™) according to the manufacturer's instructions.
The casein kinases 1 used are obtained from Invitrogen Corporation (human CK1 epsilon PV3500 and human CK1 delta PV3665).
A peptide substrate, labelled at both ends with a fluorophor donor group (coumarin) and a fluorophor acceptor group (fluorescein) constituting a FRET system is phosphorylated in the presence of ATP by casein kinase 1 epsilon or delta in the presence of increasing concentrations of compounds of the invention.
The mixture is treated with a site-specific protease that specifically cleaves the peptide substrate to form two fluorescent fragments having a large fluorescence emission ratio.
The fluorescence observed is thus related to the capacity of the products of the invention to inhibit the phosphorylation of the peptide substrate by casein kinase 1 epsilon or casein kinase 1 delta.
The compounds of the invention are dissolved at different concentrations starting with a 10 mM stock solution in DMSO diluted in a buffer containing 50 mM HEPS, pH 7.5, 1 m MEGTA, 0.01% Brij-35, 10 mM MgCl2 for casein kinase 1 epsilon and supplemented with Trizma Base (50 mM), pH 8.0, and NaN3 (0.01% final) for casein kinase 1 delta.
The phosphorylation of the peptide substrate SER/THR 11 obtained from Invitrogen Corporation™ is performed at a final concentration of 2 μM. The ATP concentration is 4 times the KM, this value being 2 μM for casein kinase 1 epsilon and 4 μM for casein kinase 1 delta.
The emitted fluorescence is measured at wavelengths of 445 and 520 nm (excitation at 400 nm).

[1] = test system: Mper1-luc Rat-1 (P2C4) fibroblasts; assay: Circadian cell assay (mPer1-luciferase reporter, period prolongation); assay type: cell-based; conditions: effective concentration that induced a 1-hour prolongation of the circadian period, interpolated from hyperbolic curve
Method: Experimental Protocols for Circadian Cell Assay
Mper1-luc Rat-1 (P2C4) fibroblast cultures were prepared by dividing the cultures every 3-4 days (approximately 10-20% of confluence) on 150 cm^2 degassed polystyrene tissue culture flasks (Falcon® #35-5001) and maintained in growth medium [EMEM (Celigro #10-010-CV); 10% foetal bovine serum (FBS; Gibco #16000-044); and 50 I.U./ml of penicillin-streptomycin (Celigro #30-001-CI)] at 37° C. and under 5% CO2.
Cells obtained from Rat-1 fibroblast cultures at 30-50% of confluence as described above were co-transfected with vectors containing the selection marker for resistance to zeocin for a stable transfection and a luciferase reporter gene controlled by the mPer-1 promoter. After 24 to 48 hours, the cultures were divided on 96-well plates and maintained in growth medium supplemented with 50-100 μg/ml of zeocin (Invitrogen® #45-0430) for 10-14 days. The zeocin-resistant stable transfectants were evaluated for the expression of the reporter by adding 100 μM luciferin (Promega® #E1603®) to the growth medium and by assaying the luciferase activity on a TopCount scintillation counter (Packard Model #C384V00). The Rat-1 cell clones expressing both zeocin resistance and lucerifase activity controlled by mPer1 were serum-shock synchronized with 50% horse serum [HS (Gibco® #16050-122)] and the activity of the circadian reporter was evaluated. The P2C4 clone of Mper1-luc Rat-1 fibroblasts was selected to test the compound. Mper1-luc Rat-1 ([…]) fibroblasts at 40-50% of confluence, obtained according to the protocol described above, were plated out onto 96-well opaque tissue culture plates (Perkin Elmer® #6005680). […]
The period analysis was performed either by determining the interval between the relative light emission minima over several days or by Fourier transform. […] The data were analysed by adjusting a hyperbolic curve to the data expressed as change of period (y-axis) as a function of the concentration of the test compound (x-axis) in the XLfit™ software and the CE Delta (t+1 h) was interpolated from this curve.

T1 sequence (P48730 whole entry): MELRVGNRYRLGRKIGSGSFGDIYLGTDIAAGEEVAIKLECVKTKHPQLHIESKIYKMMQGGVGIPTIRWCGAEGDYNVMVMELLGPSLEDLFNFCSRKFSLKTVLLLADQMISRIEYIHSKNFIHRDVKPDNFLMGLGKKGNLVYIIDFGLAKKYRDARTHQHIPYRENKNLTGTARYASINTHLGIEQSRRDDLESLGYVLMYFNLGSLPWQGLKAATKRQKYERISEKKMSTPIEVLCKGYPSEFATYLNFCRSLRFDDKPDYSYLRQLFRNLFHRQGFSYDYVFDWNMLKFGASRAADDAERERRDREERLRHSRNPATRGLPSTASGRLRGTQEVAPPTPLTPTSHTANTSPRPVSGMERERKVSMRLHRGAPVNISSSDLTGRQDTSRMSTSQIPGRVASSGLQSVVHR

Compound: Fc1ccc(-c2nc3ccc(N4CCC(N5CCCC5)CC4)nn3c2-c2ccnc3[nH]ccc23)cc1 [Compound 36, 2-(4-Fluorophenyl)-6-(4-pyrrolidin-1-ylpiperidin-1-yl)-3-(1H-pyrrolo[2,3-b]pyridin-4-yl)imidazo[1,2-b]pyridazine]
- IC50 (human CK1 delta): 19 nM
- CE Delta (t + 1 h) [1]: 1 to 7 nM
- melting point: 261 to 264 °C

Reference: patent US8546395B2, “6-cycloamino-3-(1H-pyrrolo[2,3-b]pyridin-4-yl)imidazo[1,2-b]pyridazine derivatives, preparation thereof and therapeutic use thereof” (Sanofi, priority 2008, dated 2013)
